The record followed here is patent US20140031283A1, “ANTICANCER FUSION PROTEIN” (ADAMED SP. Z O.O., priority 2011, published 2014).

One assay has as its system HCT-116. The settings on record: continuous incubation over 72 h, test MTT.
Assay [1] has as its system human colon cancer HCT116. In words: HCT116 colon cancer xenograft in Crl:CD1-Foxn1^nu 1 mice. It counts as in vivo. The settings on record: HCT116, Crl:CD1-Foxn1^nu 1 mice. As for the experimental part:
(§1) Antitumor activity of protein preparations was tested in a mouse model of human colon cancer HCT116, human colon cancer Colo205, human colon cancer model SW620, human liver cancer model HepG2, and human lung cancer models NCI-H460 and NCI-H460-Luc2.
(§2) The HCT116 (in mice Crl:CD1-Foxn1^nu 1), Colo205, NCI-H460, NCI-H460-Luc2 cells were maintained in RPMI 1640 medium (Hyclone, Logan, Utah, USA) mixed in the ratio of 1:1 with Opti-MEM (Invitrogen, Cat.22600-134) supplemented with 10% fetal calf serum and 2 mM glutamine. On the day of mice grafting, the cells were detached from the support by washing the cells with trypsin (Invitrogen), then the cells were centrifuged at 1300 rpm, 4° C., 8 min., suspended in HBSS buffer (Hanks medium), counted and diluted to the concentration of 25×10^6 cells/ml.
(§3) Examination of antitumor activity of proteins of the invention was conducted on 7-9 week-old CD-nude (Crl:CD1-Foxn1^nu 1) or 4-6 week-old Crl:SHO-Prkdc^scidHr^hr mice obtained from Charles River Germany. Mice were kept under specific pathogen-free conditions with free access to food and demineralised water (ad libitum). All experiments on animals were carried in accordance with the guidelines: “Interdisciplinary Principles and Guidelines for the Use of Animals in Research. […]

Another assay has as its system NCI-H460. The settings on record: continuous incubation over 72 h, test MTT.
The subject of assay [2] is human colon cancer model SW620. Description: SW620 colon cancer xenograft in Crl:SHO-Prkdc^scidHr^hr mice. It counts as in vivo. Conditions: 30 mg/kg i.v. six times every second day, 31st day. As for the experimental part:
as §1
The HCT116 (in mice Crl:SHO-Prkdc^scidHr^hr) were alternatively maintained in McCoy's medium (Hyclone, Logan, Utah, USA) supplemented with 10% fetal calf serum and 2 mM glutamine. On the day of mice grafting, the cells were detached from the support by washing the cells with trypsin (Invitrogen), then the cells were centrifuged at 1300 rpm, 4° C., 8 min., suspended in HBSS buffer (Hanks medium), counted and diluted to the concentration of 25×10^6 cells/ml. SW620 cells were maintained in DMEM (HyClone, Logan, Utah, USA) supplemented with 10% fetal calf serum and 2 mM glutamine. On the day of mice grafting, the cells were detached from the support by washing the cells with trypsin (Invitrogen), then the cells were centrifuged at 1300 rpm, 4° C., 8 min., suspended in HBSS buffer (Hanks medium), counted and diluted to the concentration of 25×10^6 cells/ml.
Examination of antitumor activity of proteins of the invention was conducted on 7-9 week-old CD-nude (Crl:CD1-Foxn1^nu 1) or 4-6 week-old Crl:SHO-Prkdc^scidHr^hr mice obtained from Charles River Germany. […]

In assay [3] the test system is human lung cancer NCI-H460-Luc2. Description: NCI-H460-Luc2 lung cancer xenograft in Crl:CD1-Foxn1nu 1 mice. The assay is classed as in vivo. Conditions: NCI-H460-Luc2, Crl:CD1-Foxn1nu 1 mice, 10 mg/kg i.v. six times every second day, 30th day. As for the experimental part:
as §1, §2, §3

Method for HCT-116: Data analysis consists in determining IC50 concentration of the protein (in ng/ml), at which the 50% reduction in the number of cells occurs in the population treated compared to control cells. Results were analyzed using GraphPad Prism 5.0 software. […] Cell culture medium was diluted to a defined density (10^4-10^5 cells per 100 μl). Then 100 μl of appropriately diluted cell suspension was applied to a 96-well plate in triplicates. Thus prepared cells were incubated for 24 h at 37° C. in 5% or 10% CO2, depending on the medium used, and then to the cells (in 100 μl of medium) further 100 μl of the medium containing various concentrations of tested proteins were added. […] After incubation of the cells with tested proteins over the period of next 72 hours, which is equivalent to 3-4 times of cell division, the medium with the test protein was added with 20 ml of MTT working solution [5 mg/ml], and incubation was continued for 3 h at 37° C. in 5% CO2. Then the medium with MTT solution was removed, and formazan crystals were dissolved by adding 100 μl of DMSO. After stirring, the absorbance was measured at 570 nm (reference filter 690 nm).
Each experiment represents the average value of at least two independent experiments performed in triplicates.

As for “rhTRAIL114-281: recombinant human soluble TRAIL, amino acids 114-281 of hTRAIL, used as the comparative reference”, in the assay with HCT-116, the “HCT116 IC50” value was determined as 0.02557 µg/mL. Further, the “tumor growth inhibition (TGI) relative to the control” value was 21.8% in assay [1] (10 mg/kg i.v. daily for ten days, 31th day); 44% in assay [1] (10 mg/kg i.v., 10 daily applications with a two-day break after the first 5, 27th day); −9% in assay [2]; 53.1% in assay [3]. Also, in the assay on NCI-H460, the “NCI-H460 IC50” value stood at 0.06968 µg/mL.
